# Laboratory results as given in US11661399B2, “Methods and compositions for preventing degradation of dimethyl trisulfide” (priority 2018, dated 2023).
# Tests used:
# [1] = Accelerated stability storage: DMTS recovery over time in solution; type: physicochemical; details: for DMTS degraded: 14 days at 54° C.
# Protocol: (§1) EPA accelerated stability guidelines call for storage of compositions at 54° C. for two weeks. This is considered to be the equivalent to storing compositions for one year at room temperature. These conditions were applied to the following studies to ensure that DMTS can be formulated in compliance with EPA guidelines.
# 120 ppm DMTS only is compared to 120 ppm DMTS with 420 ppm MDEA. Using the accelerated conditions described above, DMTS in water was still observed to be degrading over time.
# Various conditions were modified to improve the overall stability of DMTS in solution. First, the pH was lowered by buffering the solution. It was predicted that a lower pH might prevent the catalyzation of DMTS breakdown. The solution was buffered to a pH of 6 and compared to a control. 32 ppm DMTS was stored in glass at 40° C. for 7 days, then stored at 54° C. for an additional 15 days.
# DMDS was added to the DMTS in this example. It was hypothesized that if the breakdown pathway of DMTS to DMDS exists in equilibrium, additional DMDS would stabilize the breakdown pathway. DMDS was added to formulas containing DMTS only and DMTS with MDEA.
# It was hypothesized that propylene glycol (PG) could have a similar effect. Samples were prepared with 8 ppm and 4 ppm DMTS in water as controls. Experimental samples included 8 ppm DMTS with 1% PG or 10% PG. A sample was also prepared in an HDPE container that was not fluorinated.
# This example examined the effects of fluorination of HDPE containers on the stability of DMTS. Stability of DMTS was recorded for storage at 54° C. over the course of 14 days. Glass containers were used as a control. HDPE containers were tested having no fluorination (F0), Level 3 fluorination (F3), and Level 5 fluorination (F5). Samples of DMTS were prepared to a dilution of 8 ppm DMTS in water with 10% PG.
# Given the improvements seen with 10% PG used as solvent, higher concentrations of PG were tested. 0.28% DMTS in 100% PG was tested for stability over two weeks at 54° C. Storage in glass containers was compared to HDPE containers with Level 3 fluorination.
# Other solvents were tested without dilution with water. Samples of 0.03% DMTS were prepared in 100% solvent. The solvents tested were ethanol in a glass container, PG in a glass container, PG in a non-fluorinated HDPE container, and glycerol in a glass container.
# In this example, 0.03 wt-% (300 ppm) DMTS was dissolved into solvent consisting of 100% ethanol (EtOH) or 100% propylene glycol (PG). This study is very similar to Example 7. Recovery of DMTS was recorded over the course of 14 days. The DMTS solutions were stored in the accelerated conditions of 54° C. Less than 10% DMTS was degraded over the course of 14 days for both EtOH and PG.
# In this example, a lower concentration of DMTS was used to produce a use composition. 32 ppm DMTS was dissolved in either a 100% water solution or a combination of 10% PG and 90% water. The same accelerated conditions were used for 14 days. Over 70% of DMTS was recovered with water as the only solvent. However, using a 10% PG solution in water improved DMTS stability, providing greater than 80% recovery.
# Even lower concentrations of DMTS were examined to determine if further dilution of the concentrate affects stability of DMTS. Solutions including 8 ppm DMTS were prepared. DMTS was dissolved in water, a solution of 1 wt-% PG in water, and a solution 10 wt-% PG in water. […] The reduced quantity of DMTS did have a slight negative effect on stability.
# Finally, solutions including 1 ppm DMTS were examined to determine if use compositions including small amounts of DMTS can remain stable over the course of the two week testing period at 54° C. […] Hard water had the greatest negative effect on DMTS stability.
# [2] = DMTS degradation over 14 days at 54° C. (gas chromatograph, Day 0 vs Day 14); type: physicochemical; details: water + MDEA, pH lowered to 2, two weeks at 54° C.
# Protocol: as §1
# In this example, various concentrations of DMTS in water, ethanol (EtOH), and propylene glycol (PG), with and without MDEA, were prepared and tested for degradation. The pH was adjusted to 2, 7, or 12+/−0.5 with sodium hydroxide or hydrochloric acid. The DMTS concentration was measured by gas chromatograph on Day 0 and Day 14 and the percent degradation calculated from those values. The formulas were capped and stored at 54° C. for two weeks.
compound,measurement,setting,value
"CSSSC [DMTS, dimethyl trisulfide]",DMTS remaining in solution,"[1]; 1 ppm DMTS in hard water, day 14, 54° C.",no DMTS remained
same,DMTS stability (in words),"[1]; 8 ppm DMTS in water with 10% PG, HDPE Level 5 fluorination (F5), 54° C., 14 days",best results which were similar to the glass containers
same,DMTS degradation (in words),"[1]; 8 ppm DMTS in water with 10% PG, non-fluorinated HDPE (F0), 54° C., 14 days",fastest rates of DMTS degradation
same,DMTS stability (in words),[1]; 8 ppm DMTS with 1% PG or 10% PG vs water controls,Some improvement
same,DMTS recovered,"[1]; 32 ppm DMTS in 100% water, 14 days accelerated conditions",Over 70%
same,DMTS degradation (in words),"[1]; 32 ppm DMTS in solution with ethanol, glass, 40° C. 7 days then 54° C. 15 days",least degradation
same,DMTS stability (in words),"[1]; 32 ppm DMTS, N2 blanket and soft water samples, glass, 40° C. 7 days then 54° C. 15 days",least stable conditions
same,DMTS breakdown (in words),"[1]; 32 ppm DMTS, pH 6 buffer, glass, 40° C. 7 days then 54° C. 15 days",faster breakdown than the control
same,DMTS degradation over time (in words),"[1]; 120 ppm DMTS only in water vs 120 ppm DMTS with 420 ppm MDEA, accelerated conditions",degradation was slowed significantly
same,DMTS degraded,[1]; 300 ppm DMTS in 100% EtOH,Less than 10%
same,DMTS degraded,[1]; 300 ppm DMTS in 100% PG,Less than 10%
same,DMTS breakdown (in words),[1]; DMDS added to DMTS only and DMTS with MDEA formulas,did not slow down the breakdown of DMTS
same,DMTS degradation (in words),"[1]; sample in non-fluorinated HDPE container, 54° C.",significantly faster degradation
same,DMTS degraded,[2],20%
